From PubChem BioAssay (NCI) come the findings set out here.

Test systems include LXFL 529 NSCLC; SNB-78 CNS; MDA-N; M19-MEL melanoma; DMS 273 small cell lung; XF 498 CNS; HOP-18 NSCLC; KM20L2 colon; RXF-631 renal; SN12K1 renal; P388/ADR leukemia.
What all share (assay): NCI tumour cell line growth inhibition, 48 h

“And” between values parts separate entries of the source, which are not always exact repeats. Equal entries are not always repeated.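 Assay format: 96-well plates, 48-hour exposure. GI50 is the concentration that inhibits growth by half. TGI denotes the concentration required for complete inhibition of growth.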

As to `Cc1cccc(C)c1NC(=O)C(C#N)C1=C(Cl)C(=O)c2ccccc2C1=O` (stereo not drawn), the TGI with LXFL 529 NSCLC is 30 µM; with SNB-78 CNS, 56.1 µM; with MDA-N, 28.6 µM; in the assay on M19-MEL melanoma it was 16.6 µM; in the assay on DMS 273 small cell lung it was over 100 µM; in the assay on XF 498 CNS it was 28.9 µM. For the same compound, the TGI turned out to be 25.3 µM in the assay on HOP-18 NSCLC, 50.7 µM in the assay on KM20L2 colon and 43 µM with RXF-631 renal.
For the compound `Cc1ccc2nc(NC(=O)C(=O)C(C#N)c3nc4ccccc4s3)sc2c1` (stereo not drawn), the TGI is over 100 µM in the assay on LXFL 529 NSCLC; over 100 µM in the assay with SNB-78 CNS; over 100 µM in the assay with M19-MEL melanoma; over 100 µM in the assay with DMS 273 small cell lung; 63.9 µM with XF 498 CNS; over 100 µM with HOP-18 NSCLC. Moreover, the TGI in the assay on KM20L2 colon and in the assay on RXF-631 renal was over 100 µM in each case.
`CCOC(=O)NC(=O)c1cn(CCOC(=O)CCCCCCCCC(=O)OCCn2cc(C(=O)NC(=O)OCC)c(=O)[nH]c2=O)c(=O)[nH]c1=O`: the TGI in the assay with LXFL 529 NSCLC, in the assay on SNB-78 CNS, with M19-MEL melanoma, in the assay on DMS 273 small cell lung, with XF 498 CNS and in the assay on HOP-18 NSCLC was over 100 µM each time. Besides, the TGI in the assay on KM20L2 colon and in the assay on RXF-631 renal was over 100 µM throughout.
In the case of `Cc1ccc(S(=O)(=O)OC2CSS(=O)CC2OS(=O)(=O)c2ccc(C)cc2)cc1` (stereo not drawn), the TGI with LXFL 529 NSCLC was 27.7 µM; in the assay on SNB-78 CNS it was 58.9 µM; in the assay with M19-MEL melanoma, 30.5 µM; in the assay with DMS 273 small cell lung, 35.3 µM; in the assay on XF 498 CNS it was 26.6 µM; in the assay with HOP-18 NSCLC, 37.6 µM. Besides, the TGI came out at 32.6 µM with KM20L2 colon and 30.4 µM in the assay with RXF-631 renal.
For `CC1CCC(NC(=O)N(CCCl)N=O)CC1` (stereo not drawn), the TGI in the assay with LXFL 529 NSCLC was 28.7 µM; in the assay with SN12K1 renal, 67 µM; in the assay with SNB-78 CNS it was 88.7 µM and 110 µM; in the assay on MDA-N it was 90.1 µM; with M19-MEL melanoma it was 98 µM; in the assay on DMS 273 small cell lung it was 82.3 µM and 74 µM. In addition, the TGI in the assay on P388/ADR leukemia is 56.8 µM; in the assay on XF 498 CNS, 43.5 µM and 81.2 µM; in the assay with HOP-18 NSCLC, 62.8 µM; in the assay on KM20L2 colon it was 120 µM. Besides, the GI50 in the assay with SNB-78 CNS was 20.1 µM; with M19-MEL melanoma, 53.1 µM; with DMS 273 small cell lung it was 26.6 µM; in the assay with XF 498 CNS, 16.4 µM; with KM20L2 colon, 44.7 µM.
As for `COc1cc(C[C@H]2c3cc(OC)c(OC)cc3CCN2C)c(Oc2cc3c(cc2OC)-c2c(OC)c(OC)cc4c2[C@H](C3)N(C)CC4)cc1OC`, the TGI was 23.6 µM in the assay with LXFL 529 NSCLC; 15.4 µM in the assay on SN12K1 renal; 13.1 µM in the assay on MDA-N; 16.8 µM and 24.6 µM in the assay with M19-MEL melanoma; 27.6 µM and 28.1 µM in the assay on DMS 273 small cell lung; 27.9 µM in the assay on P388/ADR leukemia. The TGI with XF 498 CNS was 16.4 µM and 16.3 µM; with HOP-18 NSCLC, 40.9 µM and 29.9 µM; with KM20L2 colon it was 13.5 µM and 7.75 µM; with RXF-631 renal it was 19.8 µM. The GI50 in the assay with M19-MEL melanoma was 11.9 µM; in the assay on DMS 273 small cell lung, 14.6 µM; with XF 498 CNS, 6.8 µM; in the assay on HOP-18 NSCLC it was 20.1 µM and 15.8 µM; in the assay with KM20L2 colon it was 2.32 µM.
Turning to `COC1CC(OS(=O)(=O)c2ccc([N+](=O)[O-])cc2)C(OC(=O)c2ccccc2)C(C)O1` (stereo not drawn), the TGI in the assay with LXFL 529 NSCLC, with SNB-78 CNS, with M19-MEL melanoma, in the assay with DMS 273 small cell lung, in the assay on XF 498 CNS and in the assay with HOP-18 NSCLC was over 100 µM throughout. For the same compound, the TGI in the assay on KM20L2 colon and in the assay with RXF-631 renal was over 100 µM in each case.
Take `COc1ccc(Br)c(N/N=C2\CCCNC2=O)c1`: the TGI in the assay on LXFL 529 NSCLC, in the assay with SNB-78 CNS, with M19-MEL melanoma, in the assay on DMS 273 small cell lung, in the assay with XF 498 CNS and in the assay on HOP-18 NSCLC was over 100 µM each time. The TGI in the assay on KM20L2 colon and in the assay on RXF-631 renal was over 100 µM in each case.
Consider `COc1cc(OC(=O)c2ccccc2)cc2c1C(=O)C=CC2=O`, for which the TGI with LXFL 529 NSCLC was found to be 25.5 µM; in the assay on SNB-78 CNS, 41.4 µM; in the assay with MDA-N, 18.8 µM; in the assay with M19-MEL melanoma, 25.9 µM; in the assay with DMS 273 small cell lung it was 40.5 µM; with XF 498 CNS, 31.4 µM. The TGI was 41.5 µM in the assay on HOP-18 NSCLC, over 100 µM with KM20L2 colon and 41.5 µM with RXF-631 renal.
